For 14 molecules, MIC and IC50 results are on record in ChEMBL document CHEMBL4400517, “Marine natural products as potential anti-tubercular agents” (Eur J Med Chem, 2019).

Converted amounts (≈) assume the structure as drawn.

In the first assay the test system is Mycobacterium tuberculosis. Description: Antibiofilm activity against Mycobacterium bovis BCG after 5 weeks. Format: functional. The following applies: variant bovis BCG.
In turn, `CC(C)=C/C=C\[C@H](C)[C@H]1CC[C@]2(C)C[C@H]3[C@H](C(=O)C[C@@]3(C)O)/C(C=O)=C\C[C@@H]12` came in with an MIC of 8.2 µM (≈ 3.15 µg/mL).

A further assay has as its system Mycobacterium tuberculosis. Description: Antimycobacterial activity against Mycobacterium bovis BCG. Format: functional. To be noted: variant bovis BCG.
`COc1ccc2c(c1)CC1=C2[C@H](O)[C@@]2(O)C(=O)N3CCC[C@H]3C(=O)N2[C@H]1C=C(C)C` had an MIC of 2.41 µM (≈ 0.989 µg/mL).

`C1=C2CCCC/C=C\C=C\CCN3CC[C@@H]4[C@H](CCCCCC/C=C\C=C/CCN(C2)C[C@H]14)C3` (relative stereo) [HALICYCLAMINE A] gave an MIC of 2.16 to 10.8 µM (≈ 1 to 5.01 µg/mL).

As to `COC(=O)N[C@H]1[C@@H](C)O[C@@H](O[C@H]2C/C=C(\C)[C@@H]3C=C[C@@H]4[C@@H](O[C@@H]5C[C@@H](O[C@@H]6C[C@@H](O)[C@@H](O[C@H]7C[C@@H](C)[C@H](OC)[C@H](O)C7)[C@H](C)O6)[C@@H](O)[C@H](C)O5)[C@@H](C)C[C@H](C)[C@H]4[C@]3(C)C(=O)C3=C(O)[C@@]4(C[C@@H](C)C(CO)=C[C@H]4/C=C/2C)OC3=O)C[C@]1(C)[N+](=O)[O-]`, the MIC was determined as 0.66 µM (≈ 0.782 µg/mL).

As to `O=C1N[C@@H](Cc2c[nH]c3ccccc23)C(=O)N2CCC[C@@H]12` [BREVIANAMIDE F], the MIC stood at 44.2 µM (≈ 12.5 µg/mL).

Turning to `COC(=O)N[C@H]1[C@@H](C)O[C@@H](O[C@H]2C/C=C(\C)[C@@H]3C=C[C@@H]4[C@@H](O[C@@H]5C[C@@H](O[C@@H]6C[C@@H](O)[C@@H](O[C@H]7C[C@@H](C)[C@H](OC)[C@H](O)C7)[C@H](C)O6)[C@@H](O)[C@H](C)O5)[C@@H](C)C[C@H](C)[C@H]4[C@]3(C)C(=O)C3=C(O)[C@@]4(C[C@@H](C)C(CO)=C[C@H]4/C=C/2C)OC3=O)C[C@]1(C)N`, the MIC is 1.35 µM (≈ 1.56 µg/mL).

Consider `NNC(=O)c1ccncc1` [ISONIAZID], for which the MIC was 0.36 µM (≈ 0.0494 µg/mL).

In turn, `COC(=O)Nc1coc(C(=O)Nc2coc(C(=O)NCCc3ccc(O)cc3)c2)c1` [PROXIMICIN B] had an MIC of 15.1 µM (≈ 6.25 µg/mL).

On to `C=CC(C)(C)c1[nH]c2ccccc2c1/C=c1\[nH]c(=O)c2n(c1=O)CCC=2C1=c2c(=O)[nH]/c(=C\c3c(C(C)(C)C=C)[nH]c4ccccc34)c(=O)n2CC1`, for which the MIC came out at 9.03 µM (≈ 6.26 µg/mL).

On to `COC(=O)N[C@H]1[C@@H](C)O[C@@H](O[C@H]2C/C=C(\C)[C@@H]3C=C[C@@H]4[C@@H](O[C@@H]5C[C@@H](O[C@@H]6C[C@@H](O)[C@@H](O[C@H]7C[C@@H](C)[C@H](OC)[C@H](O)C7)[C@H](C)O6)[C@@H](O)[C@H](C)O5)[C@@H](C)C[C@H](C)[C@H]4[C@]3(C)C(=O)C3=C(O)[C@@]4(C[C@@H](C)C(COC(C)=O)=C[C@H]4/C=C/2C)OC3=O)C[C@]1(C)N`, for which the MIC stood at 1.3 µM (≈ 1.56 µg/mL).

A further assay relates to Mycobacterium tuberculosis. The assay is described as follows: Antibiofilm activity against Mycobacterium bovis BCG. Format: functional, organism-based. To be noted: variant bovis BCG.
Molecule `COc1cc(OC)c2c(c1)[C@@]13CC(=C(C)C)C[C@H]1[C@](C)(CCC=C(C)C)[C@@](Br)(C2=O)C3=O` yielded an IC50 of 160 to 2500 nM.

Regarding `CO[C@H]1/C=C/O[C@@]2(C)Oc3c(C)c(O)c4c(O)c(c(/C=N/N5CCN(C)CC5)c(O)c4c3C2=O)NC(=O)/C(C)=C\C=C\[C@H](C)[C@H](O)[C@@H](C)[C@@H](O)[C@@H](C)[C@H](OC(C)=O)[C@@H]1C` [RIFAMPIN], the IC50 was 1220 nM.

For `COc1cc(O)c2c(c1)[C@@]13CC(=C(C)C)C[C@H]1[C@](C)(CCC=C(C)C)[C@@](Br)(C2=O)C3=O`, the IC50 lay within 640 to 10300 nM.

For `CC(C)=C1C[C@H]2C(C)(C)[C@@]3(Br)C(=O)c4c(O)cc(O)cc4[C@]2(C1)C3=O`, the IC50 was 220 to 13900 nM.

Usually IC50 stands for the concentration that inhibits the measured activity by half.
